Data set [1] has as its system total serum IgG1, IgG2a and IgE. As to the kind of experiment: Serum Ig ELISA in sensitized DBA2J mice. The data set is classed as in vivo, mouse. Here is the method: Samples were centrifuged to separate cells and serum was collected and used to measure total IgG1, IgG2a and IgE levels. Samples not measured immediately were frozen at −20° C.
Serum Igs were measured using an ELISA antibody-sandwich assay. Microtiter plates were coated, 50 μl per well, with rat anti-murine IgG1, IgG2a or IgE antibody (Southern Biotechnology and PharMingen) at a concentration of 2.5 μg/ml in coating buffer of sodium carbonate-sodium bicarbonate with sodium azide. Plates were covered with plastic wrap and incubated at 4° C. for sixteen hours. The plates were washed three times with a wash buffer of 0.05% Tween-20 in phosphate-buffered saline, incubating for five minutes for each wash. Blocking of nonspecific binding sites was accomplished by adding 200 μl per well 5% bovine serum albumin in phosphate-buffered saline, covering with plastic wrap and incubating for two hours at 37° C. After washing three times with wash buffer, duplicate 50 μll test samples were added to the wells. Test samples were assayed after being diluted 1:10, 1:50 and 1:100 with 5% bovine serum albumin in wash buffer. In addition to the test samples, a set of Ig standards (PharMingen) at various liner concentrations in 5% bovine serum albumin in wash buffer, were assayed to generate a standard curve. A blank of no sample or standard was used to zero the plate reader (background). After adding samples and standards, the plate was covered with plastic wrap and incubated for two hours at room temperature. After washing three times with wash buffer, 50 μl of secondary antibody rat anti-murine IgG1, IgG2a or IgE-horseradish peroxidase conjugate was added at a concentration of 250 ng/ml in 5% bovine serum albumin in wash buffer. […] After five to ten minutes the reaction was stopped with 50 μl of 12.5% sulfuric acid and absorbance was measured at 490 nm on a Dynatech® MR5000 plate reader. A standard curve was constructed from the standards with antigen concentration on the x axis (log scale) and absorbance on the y axis (linear scale). […]

Data set [2] concerns mitogen or antigen stimulated murine or human lymphocytes. As to the kind of experiment: Lymphocyte aggregation assay (PHA-PMA mitogen stimulated). The data set is classed as cell-based. The note with it: Homo sapiens, Lymphocyte, 12 h, aggregates of greater than 100 cells, PHA-PMA stimulation; read-out: Aggregation Assay Minimum Effective Conc. Here is the method:
(§1) Immunomodulatory 3-aminosteroids (FIGS. 3–7 and Table I) were identified in vitro based on their ability to inhibit homo- or hetero-typic aggregation and subsequent proliferation of mitogen or antigen stimulated murine or human lymphocytes. Human or mouse lymphocytes were isolated from peripheral blood by Ficoll-Hypaque as described (Stoeckert et al., (1990) Exp. Hematol. 18. 1164–1170). For mitogen stimulation, 1×10^5 cells per well were plated in varying amounts of 3-aminosteroid compounds and assayed for aggregation and proliferation after twelve hours of stimulation by PHA-PMA mitogens. […] For antigen stimulation, lymphocytes were isolated from BALBc mice which had been sensitized to Aspergillus fumigatus antigen for three weeks and plated at 1×10^5 cells per well with or without 100 units of Aspergillus fulmigatus antigen. Cells were grown for three days and then scored for cellular aggregates and proliferation as described above in the presence or absence of increasing amounts of Compound-B or analogue compounds. […] Similar results were obtained in assays using antigen mediated response to compounds (not shown). […] All of the active compounds shown in Table I as well as rational modifications of these compounds as depicted in FIGS. 8–10 are embodiments of the invention

The test system of data set [3] is eosinophils. As to the kind of experiment: Bronchoalveolar lavage cellular analysis (eosinophilia) in sensitized mice. It is filed as in vivo, mouse. The note with it: FIG. 16. From the text: Phenotyping and efficacy of pretreatment. Animals either received no pretreatment or were sensitized by nasal aspiration of Aspergillus fumigatus antigen to assess the effect on bronchial hyperresponsiveness, bronchoalveolar lavage and serum IgE. Mice were challenged with Aspergillus or saline intranasally (Monday, Wednesday and Friday for three weeks) and phenotyped twenty-four hours after the last dose. The effect of pretreatment by aminosteroids was used to assess the effect of down-regulating the IL-9 pathway in mice. To determine the bronchoconstrictor response, respiratory system pressure was measured at the trachea and recorded before and during exposure to the drug. Mice were anesthetized and instrumented as previously described. (Kleeberger et al., (1990) Am. J. Physiol. 258, L313–320; Levitt et al., (1995) Clin. Exp. Allergy 25, 61–63; Ewart et al., (1995) J. Appl. Physiol. 79, 560–566). Airway responsiveness was measured to one or more of the following: 5-hydroxytryptamine, acetylcholine, atracurium or a substance-P analogue. A simple and repeatable measure of the change in peak inspiratory pressure following bronchoconstrictor challenge was used which has been termed the Airway Pressure Time Index (APTI). The APTI was assessed by the change in peak respiratory pressure integrated from the time of injection until the peak pressure returns to baseline or plateau. […]

Data set [4] relates to mitogen or antigen stimulated murine or human lymphocytes. The data set is described as follows: PBMC proliferation assay (tritiated thymidine incorporation). The data set is classed as cell-based. The following applies: Homo sapiens, Lymphocyte. Here is the method: as §1
(In general: Incorporation of labelled thymidine or its analogues reports DNA synthesis.)

Data set [5] concerns mice sensitized to antigen. As to the kind of experiment: Airway hyperresponsiveness in mice sensitized to Aspergillus fumigatus antigen (APTI). It is filed as in vivo, mouse. On the procedure: (§2) DBA2, C57BL6 or B6D2F1 mice, five to six weeks of age, were obtained from the National Cancer Institute or Jackson Laboratories. Animals were housed in high-efficiency particulate filtered air laminar flow hoods in a virus and antigen free facility and allowed free access to pelleted rodent chow and water for three to seven days prior to experimental manipulation. The animal facilities were maintained at 22° C. and the light:dark cycle is automatically controlled (10:14 hour cycle).
(§3) Phenotyping and efficacy of pretreatment. Animals either received no pretreatment or were sensitized by nasal aspiration of Aspergillus fumigatus antigen to assess the effect on bronchial hyperresponsiveness, bronchoalveolar lavage and serum IgE. Mice were challenged with Aspergillus or saline intranasally (Monday, Wednesday and Friday for three weeks) and phenotyped twenty-four hours after the last dose. The effect of pretreatment by aminosteroids was used to assess the effect of down-regulating the IL-9 pathway in mice. To determine the bronchoconstrictor response, respiratory system pressure was measured at the trachea and recorded before and during exposure to the drug. Mice were anesthetized and instrumented as previously described. (Kleeberger et al., (1990) Am. J. Physiol. 258, L313–320; Levitt et al., (1995) Clin. Exp. Allergy 25, 61–63; Ewart et al., (1995) J. Appl. Physiol. 79, 560–566). Airway responsiveness was measured to one or more of the following: 5-hydroxytryptamine, acetylcholine, atracurium or a substance-P analogue. A simple and repeatable measure of the change in peak inspiratory pressure following bronchoconstrictor challenge was used which has been termed the Airway Pressure Time Index (APTI). The APTI was assessed by the change in peak respiratory pressure integrated from the time of injection until the peak pressure returns to baseline or plateau.
(§4) Active compounds identified in vitro were tested in vivo for their ability to suppress airway hyperresponsiveness, lung eosinophilia and serum Ig levels using assays described above. […]

Data set [6] concerns IL-9. The data set is described as follows: IL-9 expression in mitogen-stimulated lymphocytes (RT-PCR). It is filed as cell-based, human. The following applies: FIG. 13. On the procedure:
Total cellular RNA was extracted after 24 hours from cultured PBMC, murine spleen cells and M07e cells using RNA PCR corekit (Perkin-Elmer, Foster City Calif.) according to manufacturer's instructions. One microgram of RNA from each source was denatured for five minutes at 65° C. and then reverse transcribed into cDNA using a 20 μl reaction mixture containing 50 units of MLV Reverse Transcriptase, one unit per μl RNAse inhibitor. […] oligo d(T)16 primer, 1 mM each dATP, dCTP, dGTP, dTTP, 50 mM KCl, 10 mM Tris-HCl, pH 7.0, 25 mM MgCl2. The reaction mixture was pipetted into thermocycler tubes, placed in a PCR thermal cycler and subjected to one cycle (fifteen minutes at 42° C., five minutes at 99° C. and five minutes at 4° C.). A mock reverse transcription reaction was used as a negative control. […]
Immunomodulatory 3-aminosteroids (FIGS. 3–7 and Table I) were identified in vitro based on their ability to inhibit homo- or hetero-typic aggregation and subsequent proliferation of mitogen or antigen stimulated murine or human lymphocytes. […] Cells were grown for three days and then scored for cellular aggregates and proliferation as described above in the presence or absence of increasing amounts of Compound-B or analogue compounds. […]

For data set [7] the following is noted: rat, in vivo, 1 mg/kg/day. On the procedure:
To determine the mechanism by which 3-aminosteroid compounds function to suppress the asthmatic response to allergen, comparative physiologic assays were carried out utilizing the extensively studied Sprague-Dawley rat model (Scaccianoce et al., (1995) Neuroendocrinology 62, 32–38; Hatzinger et al., (1996) Neuroendocrinology 64, 349–356). Animals were administered 1 mg/kg/day of either the corticosteroid Dexamethasone or Compound-B and analyzed at ten hours for corticosterone and ACTH. […] Similar results were found for ACTH levels (>100 fold) supporting the finding that Compound-B is acting by a different mechanism from dexamethasone.

Data set [8] has as its system D2 naive mice. As to the kind of experiment: Bronchial hyperresponsiveness in D2 naive mice (APTI). It is filed as in vivo, mouse. The note with it: FIG. 14; for suppression of bronchial hyperresponsiveness: ip. Here is the method: as §2, §3, §4
Data set [9] can be described thus: Solubility during work-up. It is filed as physicochemical. The following applies: 10% acetonitrile/water, acidified with TFA. On the procedure:
The reductive aminations were accomplished by similar procedures. The sterol (500 mg for, […] for compounds 7 and 8) was dissolved in 2-propanol (25 mL). Ethylenediamine (1 mL) was added to the flask. The 3-oxo sterol and ethylenediamine were allowed to stir at room temperature for approximately four hours. Sodium cyanoborohydride (250 mg for compound 6 and 100 mg for compounds 7 and 8) was dissolved in 2-propanol (2 mL) and acetic acid (1 mL). The sodium cyanoborohydride solution was added to the reaction flask after evolution of gas had almost ceased (approximately five minutes). In all cases the reaction was complete before the first TLC was taken (less than five minutes). The work-up was the same for all analogues, solution was made basic (pH 10–11) by the addition of carbonate buffer. The aqueous layer was repeatedly extracted with chloroform. The chloroform was removed in vacuo and the crude 3-aminosteroid was dissolved in 10% acetonitrile/water, acidified with TFA. The solubility of compound I was very poor. The solutions were passed through a […] Gelman vacu-cap filter. The 3-aminosteroid isomers were separated by reverse phase chromatography on C18 (Dynamax, 300, 8 μM, 21.6 mm ID, 25 cm/L) using a gradient of acetonitrile in water with 0.1% TFA throughout. […]

Data set [10] in a line: 28 day tolerance study in Sprague-Dawley rats (weight, spleen). It is filed as in vivo, rat. The following applies: drug administered for 28 days.
Setting [11] is: FIG. 11 and FIG. 12, mitogen-stimulated lymphocytes, read-out: IC50 for suppression of lymphocyte aggregation and proliferation.
The mark [12] stands for this setting: DBA2J mice sensitized to antigen, FIG. 15.

Values after ≈ are worked out from the molar mass of the structure shown. Where two headings read alike, the source gives them in different places. Some results are limits rather than exact numbers.

The source of these data is patent publication US7074778B2, “Asthma associated factors as targets for treating atopic allergies including asthma and related disorders” (Genaera Corporation, priority 1999, dated 2006).

Consider `COC(=O)CC[C@@H](C)C1CCC2C3C[C@@H](O)[C@H]4C[C@@H](NCCN)CC[C@]4(C)C3CC[C@@]21C` (stereo partly shown) [Compound-A], for which, in [1], the “serum IgG2a (TH1 associated immunoglobulin)” value is recorded as “not”. The “total serum IgG1” value in [1] (FIG. 17) is listed as “suppressed”. Moreover, the “total serum IgE” value in [1] (FIG. 18) is “suppressed”. Further, the minimal effective concentration in data set [2] was 1 µg/mL. Besides, the “eosinophilia (eosinophils in bronchoalveolar lavage)” value in data set [3] was “eosinophils were the particular cell type affected”. Also, in [4] (setting [11]), the IC50 turned out to be 0.5 µg/mL (≈ 1.11 µM). In addition, in [5] (BALBc mice, 2.5 mg/kg administered twice per week, FIG. 19), the “block of airway hyperresponsiveness” value is listed as “able to block airway hyperresponsiveness”. In addition, in [5] (setting [12]), the “block of airway hyperresponsiveness” value is reported as “able to block airway hyperresponsiveness” and the “efficacy compared with dexamethasone” value is given as “more efficacious than the commonly used corticosteroid, dexamethasone”. In addition, in data set [6], the “expression of IL-9 in mitogen-stimulated lymphocytes” value is recorded as “block the expression of IL-9”.

On to `COC(=O)CC[C@@H](C)C1CCC2C3C(CC[C@@]21C)[C@@]1(C)CC[C@H](NCCN)C[C@H]1C[C@H]3O` (stereo partly shown) [Compound-B], for which the “effect on plasma corticosterone” value in data set [7] is on record as “no significant effect”. In data set [2], the minimal effective concentration amounted to 10 µg/mL. For the same compound, the IC50 in data set [4] (setting [11]) was determined as 2.5 µg/mL (≈ 5.57 µM). Further, in data set [8], the “effective dose compared with Compound-D” value is given as “effective at a lower dose than Compound-D” and the “suppression of bronchial hyperresponsiveness” value is reported as “effective in suppressing bronchial hyperresponsiveness”. Besides, the “expression of IL-9 in mitogen-stimulated lymphocytes” value in data set [6] is listed as “block the expression of IL-9”.

In the case of `COC(=O)CC[C@H](C)C1CCC2C3CC[C@@H]4C[C@@H](NCCCNCCCCNCCCN)CC[C@]4(C)C3CC[C@@]21C` (stereo partly shown) [Compound-D], in data set [2], the minimal effective concentration turned out to be 10 µg/mL. In addition, the IC50 in data set [4] (setting [11]) came to 10 µg/mL (≈ 17.4 µM). Further, the “suppression of bronchial hyperresponsiveness” value in data set [8] is recorded as “effective in suppressing bronchial hyperresponsiveness”.

`C[C@@H](CNC(=O)N1CCCC1)C1CCC2C3CC[C@@H]4C[C@@H](NCCN)CC[C@]4(C)C3CC[C@@]21C` (stereo partly shown) [Compound-I]: in data set [9], the solubility result is “very poor”. In data set [4] (tritiated thymidine incorporation, read-out: PBMC Proliferation ASSAY IC50), the IC50 was 0.23 µg/mL (≈ 0.487 µM).

On to `C[C@@H]1C[C@H]2[C@@H]3CCC4=CC(=O)C=C[C@]4(C)[C@@]3(F)[C@@H](O)C[C@]2(C)[C@@]1(O)C(=O)CO` [dexamethasone], for which, in data set [7], the “suppression of ACTH levels” value is on record as over 100 fold and the “suppression of absolute levels of plasma corticosterone” value was over 450 fold. In addition, the body weight entry in data set [10] is given as “weight loss”. Moreover, in data set [10] (FIG. 21), the “spleen (splenic atrophy)” value is reported as “splenic atrophy”.
